In US12622915B2, “Methods of treating PDE IV-mediated diseases or conditions” (Vanda Pharmaceuticals Inc., priority 2020, dated 2026):

Tested on: IMQ induced psoriasis
Method: Test Item Details • 1. Dexamethasone Cat. or Batch no.: BCBM4557V (sigma) • Vehicle for dexamethasone (Veh.1): acetone:ethanol (1:1) • Dose: 0.1 mg/ear & 0.25 mg in back skin • Dose volume: 20 μL/ear & 50 μL on back skin • 2. Crisaborole: PZ0037 (Sigma) • Vehicle (Veh.1): acetone:ethanol (1:1) • Dose: 0.1 mg/ear & 0.25 mg in back skin • Dose volume: 20 μL/ear, 50 μL on back skin • 3. Compound of Formula (I) • Vehicle (Veh.1): acetone:ethanol (1:1) • Dose: 0.1 mg/ear & 0.25 mg in back skin • Dose volume: 20 μL/ear, 50 μL on back skin Dexamethasone and Test Item Preparation and Application: • Strength=5 mg/ml
Application=100 μg/20 pit per each ear+250 μg/50 μL on the back G2 to G4 receive Dexamethasone, Crisaborole or test item: Daily topical treatment (D0-D6): 0.1 mg in 20 μl per ear x both the ears+0.25 mg in 50 μl (on the back) 6-8 hrs after IMQ application.
Disease Induction: Application of 5% IMQ cream 40 mg (back) and 5 mg (per ear—Inner surface) daily from day 0-6.
Treatment: 0.5% Dexamethasone solution: 0.25 mg (back) and 0.1 mg (per ear) 8 hrs post IMQ. • Day −2—Depilation on back region • Day 0—Observations (Body weight; ear thickness using digital microcaliper) • Day 2—Observations (Body weight; ear thickness using digital microcaliper) • Day 4—Observations (Body weight; ear thickness using digital microcaliper) • Day 6—Observations (Body weight; ear thickness using digital microcaliper); Blood collection (PK) and Termination {2 hrs after last dose) • Ear collection: PK, Cytokine, MPO, Thickness • Back skin collection, scoring and thickness measurement • Histopathology (optional)
The dorsal posterior area (2 cm×2 cm) of animals is depilated using a hair trimmer. 5% Imiquimod cream: 50 mg/animal (40 mg on the shaved back+5 mg each on the inner part of right and left ear) QD is applied on days 0 to 5 (Groups 1-4).
The body weight is recorded individually for all animals at receipt, day of randomization, prior to treatment, and once in two days thereafter. The animals are observed for mortality at regular intervals.
2 hrs post compound treatment on day 6, all the animals are euthanized, and ear tissues are collected. The right ear is flash frozen in liquid nitrogen and stored at −80° C. until homogenization for MPO and cytokine estimation.
The half of the left ear is used for drug concentration measurement. The other half of the left ear tissue is used for histopathology. The back skin is collected for visual assessment (scoring) and histopathology.
MPO analysis: Snap frozen ear tissue samples are homogenized in 1× assay buffer provided in the kit. The homogenates are centrifuged at 8000 g for 10 minutes in a refrigerated centrifuge. The supernatants are discarded, and the pellet is resuspended in solubilisation buffer (1× assay buffer containing 0.5% HTABr). The samples are homogenized and subjected to three rounds of freeze thaw followed by brief sonication for 10s. The samples are centrifuged at 12,000 g for 10 minutes in a refrigerated centrifuge and the resulting supernatants are analysed for MPO levels based on a fluorometric detection kit. The Kit utilizes a non-fluorescent detection reagent, which is oxidized in the presence of hydrogen peroxide and MPO to produce its fluorescent analogue. (Enzo Life Sciences; ADI-907-029).
Histopathology: At study termination, posterior dorsal skin and ear skin samples are collected. Skin samples are processed using routine histopathological methods and 4-5 μm paraffin sections are prepared. Tissue sections (3 serial sections/animal) are stained with Hematoxylin and eosin (H&E) to evaluate acanthosis, hyper/parakeratosis and inflammatory cellular infiltration in dermis. Severity of lesions are assessed semi quantitatively on a scale of 0-4 by two independent pathologists (0—normal, 1—mild degree, 2—moderate degree, 3—severe degree and 4—extensive or multiple locations) for each parameter in a blinded manner.

| SMILES | MPO activity in ear tissue homogenates (day 6, topical 0.5%, vs IMQ control) | Back skin thickness (day 6 at termination, topical 0.5%, vs IMQ control) | Cumulative clinical scores (erythema, skin thickness, scales) (topical 0.5%, back skin, maximum score 12, vs IMQ control) | Ear thickness (topical 0.5%, daily, vs IMQ control) | Overall cumulative HP scores of ear skin (topical 0.5%, maximum score 16, vs IMQ control) | Spleen weight or normalized spleen weight (topical 0.5%, vs IMQ control) | Cytokine levels in ear tissue homogenates (topical treatment, vs IMQ control) | Body weight / body weight loss (mouse, in vivo) |
| --- | --- | --- | --- | --- | --- | --- | --- | --- |
| N#Cc1ccc(Oc2ccc3c(c2)COB3O)cc1 [Crisaborole, reference compound] | do not show significant inhibition | do not show significant reduction | significant reduction in the cumulative clinical scores on day 6 | significant reduction in ear thickness on day 6 | significant reduction | do not show significant reduction | significant reduction in few of the proinflammatory cytokines | – |
| C[C@@H]1C[C@H]2[C@@H]3CCC4=CC(=O)C=C[C@]4(C)[C@@]3(F)[C@@H](O)C[C@]2(C)[C@@]1(O)C(=O)CO [Dexamethasone, reference compound] | – | – | – | – | – | – | – | significant body weight loss |
